Source: ChEMBL document CHEMBL1201862, “PubChem BioAssay data set” (2004)
Active and inactive are the calls of the source.

Key:
Protein RecA = target: T1, Protein RecA (Mycobacterium tuberculosis, UniProt P9WHJ3); assay: Fluorescence Cell-Free Homogeneous Dose Retest to Identify Inhibitors of RecA-Intein Splicing Activity. [Related pubchem assays (depositor defined):AID2097, AID2223, AID489010, AID492950]; assay type: functional
T1 sequence (P9WHJ3 whole entry): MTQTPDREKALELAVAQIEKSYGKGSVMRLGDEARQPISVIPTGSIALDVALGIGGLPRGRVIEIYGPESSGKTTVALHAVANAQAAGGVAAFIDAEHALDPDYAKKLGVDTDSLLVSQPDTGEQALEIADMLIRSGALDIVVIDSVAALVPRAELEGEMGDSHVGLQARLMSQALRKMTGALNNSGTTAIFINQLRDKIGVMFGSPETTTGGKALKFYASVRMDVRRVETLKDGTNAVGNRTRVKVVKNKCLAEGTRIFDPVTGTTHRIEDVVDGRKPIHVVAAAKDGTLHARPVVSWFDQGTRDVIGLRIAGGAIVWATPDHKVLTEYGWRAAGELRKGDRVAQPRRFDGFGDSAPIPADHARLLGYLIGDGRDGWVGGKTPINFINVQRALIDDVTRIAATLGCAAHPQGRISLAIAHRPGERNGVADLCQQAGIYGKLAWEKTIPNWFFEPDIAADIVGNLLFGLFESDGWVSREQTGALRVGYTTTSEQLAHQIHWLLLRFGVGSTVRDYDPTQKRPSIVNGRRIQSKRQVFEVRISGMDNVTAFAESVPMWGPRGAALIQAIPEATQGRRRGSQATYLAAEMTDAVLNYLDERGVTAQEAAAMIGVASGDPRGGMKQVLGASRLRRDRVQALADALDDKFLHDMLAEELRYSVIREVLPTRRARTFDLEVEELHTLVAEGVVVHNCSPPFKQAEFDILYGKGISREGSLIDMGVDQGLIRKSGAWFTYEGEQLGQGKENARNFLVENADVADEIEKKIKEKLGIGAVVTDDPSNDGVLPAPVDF

[1] = target: T2, Replicative DNA helicase DnaB (Mycobacterium tuberculosis, UniProt P9WMR3); assay: DnaB intein splicing inhibitors, dose response, biochemical, cell-free fluorescence (AID 449749); assay type: functional
T2 sequence (P9WMR3 whole entry): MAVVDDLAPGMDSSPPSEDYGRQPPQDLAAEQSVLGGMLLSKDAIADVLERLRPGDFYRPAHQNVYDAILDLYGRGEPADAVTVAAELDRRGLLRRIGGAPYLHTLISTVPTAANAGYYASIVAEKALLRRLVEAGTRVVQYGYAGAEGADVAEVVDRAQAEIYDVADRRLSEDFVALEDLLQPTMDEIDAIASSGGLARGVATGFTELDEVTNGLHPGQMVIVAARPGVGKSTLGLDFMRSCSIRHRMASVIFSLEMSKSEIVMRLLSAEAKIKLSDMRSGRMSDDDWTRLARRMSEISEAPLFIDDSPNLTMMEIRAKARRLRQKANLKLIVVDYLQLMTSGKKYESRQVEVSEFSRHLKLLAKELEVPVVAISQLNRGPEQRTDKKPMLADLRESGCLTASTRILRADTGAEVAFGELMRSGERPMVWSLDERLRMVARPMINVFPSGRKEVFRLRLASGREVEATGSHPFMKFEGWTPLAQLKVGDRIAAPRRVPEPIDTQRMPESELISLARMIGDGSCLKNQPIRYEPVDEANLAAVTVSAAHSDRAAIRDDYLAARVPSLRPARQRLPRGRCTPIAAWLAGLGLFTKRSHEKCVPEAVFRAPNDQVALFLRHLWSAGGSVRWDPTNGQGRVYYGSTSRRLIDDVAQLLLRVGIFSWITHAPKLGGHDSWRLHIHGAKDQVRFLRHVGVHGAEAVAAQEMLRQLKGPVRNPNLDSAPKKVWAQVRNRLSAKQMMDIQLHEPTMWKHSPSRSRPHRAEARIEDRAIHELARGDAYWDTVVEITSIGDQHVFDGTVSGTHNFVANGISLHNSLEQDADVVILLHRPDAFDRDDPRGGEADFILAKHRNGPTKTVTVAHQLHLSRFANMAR

cells = assay type: functional
[2] = target: Glyceraldehyde-3-phosphate dehydrogenase (Homo sapiens, UniProt P04406)
[3] = target: FAD-linked sulfhydryl oxidase ALR (Homo sapiens, UniProt P55789); assay: inhibitors of human ALR sulfhydryl oxidase, dose response, biochemical, H2O2 detection, luminescence, cherry-pick (AID 493248)
[4] = target: T3, Carboxy-terminal domain RNA polymerase II polypeptide A small phosphatase 1 (Homo sapiens, UniProt Q9GZU7); assay: inhibitors of CTDSP1, concentration-response testing, biochemical assay, absorbance-based, actives from ultra-high-throughput screening (AID 540297); assay type: functional
T3 sequence (Q9GZU7 whole entry): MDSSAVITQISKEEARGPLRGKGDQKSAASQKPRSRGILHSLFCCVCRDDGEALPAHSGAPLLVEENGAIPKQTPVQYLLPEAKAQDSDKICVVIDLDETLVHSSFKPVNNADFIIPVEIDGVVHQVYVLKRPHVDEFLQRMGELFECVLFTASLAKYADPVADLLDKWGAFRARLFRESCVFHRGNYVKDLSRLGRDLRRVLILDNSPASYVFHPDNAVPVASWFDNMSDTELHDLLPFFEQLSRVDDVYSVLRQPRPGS

[5] = target: T4, Heat shock factor protein 1 (Mus musculus, UniProt P38532); assay: HSF1 potentiators in luciferase reporter cells, confirmation, cell-based, NIH3T3, luminescence, dose retest (AID 435004); assay type: functional;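 note: stress induced by proteasome inhibitor MG132 added 30 min after compound; luciferase reporter driven by HSF1 response element in NIH3T3 cells; actives raise luminescence as potentiators of the MG132 stress response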
T4 sequence (P38532 whole entry): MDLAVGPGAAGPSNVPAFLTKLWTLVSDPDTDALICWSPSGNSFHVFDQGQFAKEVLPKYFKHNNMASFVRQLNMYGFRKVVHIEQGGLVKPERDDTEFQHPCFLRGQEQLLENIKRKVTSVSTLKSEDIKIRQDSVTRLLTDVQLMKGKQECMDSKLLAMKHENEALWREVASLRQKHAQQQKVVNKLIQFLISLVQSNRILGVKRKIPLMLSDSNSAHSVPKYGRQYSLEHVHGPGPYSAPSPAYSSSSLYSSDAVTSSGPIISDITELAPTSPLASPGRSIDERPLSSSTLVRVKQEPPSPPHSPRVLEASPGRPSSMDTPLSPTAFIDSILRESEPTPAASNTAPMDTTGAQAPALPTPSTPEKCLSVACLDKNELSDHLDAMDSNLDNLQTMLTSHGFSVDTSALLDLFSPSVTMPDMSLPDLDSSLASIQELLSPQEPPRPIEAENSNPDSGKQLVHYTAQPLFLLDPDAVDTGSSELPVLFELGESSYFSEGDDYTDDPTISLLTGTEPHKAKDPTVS

[6] = growth suppression of PTEN-null colon cells, dose response, cell-based, HCT116 PTEN knockout (AID 1047); assay type: functional;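 note: HCT116 colon tumor cells with PTEN knocked out; cells exposed to compound for 60 hours before readout; potency for loss of cell viability measured by luminescence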
[7] = growth suppression of beta-catenin-knockout colon cells, dose response, cell-based, HCT116, human colon tumor (AID 1045); assay type: functional;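 note: HCT116 colon tumor cells with beta catenin knocked out; cells exposed to compound for 60 hours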
SN12K1 = assay: cells; assay type: functional; conditions: Homo sapiens
P388 = assay: cells; assay type: functional; conditions: Mus musculus
P388/ADR = assay: cells; assay type: functional; conditions: Mus musculus

Sequence of FAD-linked sulfhydryl oxidase ALR (P55789 whole entry, the tested form may be a part): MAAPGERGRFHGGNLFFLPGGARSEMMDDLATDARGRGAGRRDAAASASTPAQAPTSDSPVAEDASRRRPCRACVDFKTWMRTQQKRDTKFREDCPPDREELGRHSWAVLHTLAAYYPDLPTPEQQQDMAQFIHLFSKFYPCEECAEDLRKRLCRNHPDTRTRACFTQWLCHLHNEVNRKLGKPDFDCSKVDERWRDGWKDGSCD
Sequence of Glyceraldehyde-3-phosphate dehydrogenase (P04406 whole entry): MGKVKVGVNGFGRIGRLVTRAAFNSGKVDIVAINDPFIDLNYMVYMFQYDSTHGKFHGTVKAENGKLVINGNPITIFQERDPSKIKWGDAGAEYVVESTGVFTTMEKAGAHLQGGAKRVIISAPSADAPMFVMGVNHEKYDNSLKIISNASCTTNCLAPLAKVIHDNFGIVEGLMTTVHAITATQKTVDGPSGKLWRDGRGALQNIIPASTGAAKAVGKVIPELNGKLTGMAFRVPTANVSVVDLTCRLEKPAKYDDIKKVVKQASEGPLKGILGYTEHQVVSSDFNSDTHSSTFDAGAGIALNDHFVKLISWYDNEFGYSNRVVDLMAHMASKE

SMILES	GI50 (SN12K1)	GI50 (P388)	GI50 (P388/ADR)	also measured
CC(=O)Nc1cccc(OC(=O)COc2ccc(Br)cc2)c1				EC50 (Protein RecA): 20.6 µM (active); AC50 [1]: 11 µM (active)
CCOC(=O)C1CCCc2c1[nH]c1c(C(N)=O)cccc21 (configuration not stated)				IC50 (cells): 5.22 µM (active)
O=C1C(Cl)=C(N2CCOCC2)C(=O)N1c1cccc(C(F)(F)F)c1				IC50 [2]: > 50 µM (inconclusive); EC50 (Protein RecA): 1.64 µM (active); AC50 [1]: 1.16 µM (inconclusive)
Cc1cc(O)n2cc(-c3ccccc3)nc2n1				AC50 [3]: 13.9 µM (active)
COc1ccc(N2C(=O)C(F)(F)C2c2cccc(F)c2)cc1 (configuration not stated)				IC50 (cells): 5.74 µM (active)
CCOc1ccc(C(CC(=O)O)CC(=O)O)cc1				IC50 [2]: > 100 µM (not active)
Cc1ncc([N+](=O)[O-])n1CCOC(=O)c1cc(Cl)cc(Cl)c1N				IC50 [4]: 6.77 µM (active); EC50 [5]: > 260 µM (inactive)
CCCc1cc(C(=O)N2CCCC(Nc3ccc(C)c(C)c3)C2)n(C)n1 (configuration not stated)				AC50 [3]: 3.84 µM (active)
CCOC(=O)N1CCC2(CC1)C(C#N)=C(N)Oc1[nH]nc(C)c12				EC50 (Protein RecA): 1.43 µM (active); AC50 [1]: 8.2 µM (active)
O=C1C(Cl)=C(N2CCN(CCOCCO)CC2)C(=O)N1c1ccc(C(F)(F)F)cc1				IC50 [2]: > 50 µM (inconclusive)
CCOc1ccc(CCNc2ccc3nnc(-c4ccccc4)n3n2)cc1OCC				EC50 [6]: 12.7 µM (active); EC50 [7]: 26.3 µM (active)
O=C1Nc2ccc(S(=O)(=O)NCc3ccco3)c3cccc1c23				IC50 [4]: 10.8 µM (active)
CC(OC(=O)c1ccc2c(=O)n3c(nc2c1)CCCCC3)C(=O)Nc1ccc(Cl)cn1 (configuration not stated)				IC50 (cells): 20.3 µM (active)
CC1CCCC(C)N1c1nnc(N)s1 (configuration not stated)				AC50 [3]: 2.31 µM (active)
O=S(=O)(Nc1ccc2c(c1)OCO2)c1ccc(F)c(F)c1				AC50 [3]: 5.12 µM (active)
CN1CCN(C2=C(Cl)C(=O)N(c3ccc(C(F)(F)F)cc3)C2=O)CC1				IC50 [2]: > 50 µM (inconclusive)
N#Cc1ccc(-c2ccc(F)cc2)nc1Oc1ccc(Cl)c(Cl)c1				EC50 [6]: 7.18 µM (active); EC50 [7]: 3.8 µM (active)
COc1ccc(CCNC(=O)c2cc(-c3cc(C)ccc3O)n[nH]2)cc1OC				AC50 [3]: 85.6 µM (active)
O=C1/C(=C/c2c[nH]c3ccccc23)CCC/C1=C\c1c[nH]c2ccccc12				EC50 [6]: 14.4 µM (active); EC50 [7]: 16.8 µM (active)
CCOC(=O)c1cc(-c2c(Cl)cccc2Cl)no1				IC50 (cells): 23 µM (active)

SMILES	GI50 (SN12K1)	GI50 (P388)	GI50 (P388/ADR)	also measured
O=C(NNCc1ccc(O)cc1)c1ccccc1Cl				AC50 [3]: 0.695 µM (active)
Nc1ccc2[nH]ncc2c1				EC50 (Protein RecA): 36.1 µM (active); AC50 [1]: 324 µM (active)
O=c1ccn([C@@H]2C=C(CO)[C@@H](O)[C@H]2O)c(=O)[nH]1	> 625 µM (inactive)	> 625 µM (inactive)		
COc1ccc(C2COc3cc(OC(C)=O)c(OC(C)=O)cc3C2)cc1 (configuration not stated)	13.9 µM (inactive)	3.08 µM (inactive)	2.87 µM (inactive)	
Nc1nccc2c1ncn2C1C=C(CO)C(O)C1O (configuration not stated)	0.811 µM (active)	0.0982 µM (active)	0.051 µM (active)	
CCCN1C(=O)/C(=C(/O)C(=O)OCC)C(c2ccc(OC)c(OC)c2)C1=O (configuration not stated)	> 100 µM (inactive)	> 100 µM (inactive)	> 100 µM (inactive)	
CCN(CC)CCCC(C)Nc1c2ccc(Cl)cc2nc2cc(Cl)ccc12 (configuration not stated)	2.81 µM (inactive)	1.87 µM (inactive)	1.71 µM (inactive)	
CCCCCC/C=C1\CCC(CN(C)C)C1=O (configuration not stated)	2.17 µM (inactive)	1.08 µM (active)	0.673 µM (active)	
COc1cccc2c1C(=O)c1c(O)c3c(c(O)c1C2=O)C[C@@](O)(C(=O)CN1CCOCC1)C[C@@H]3OC1CC(N)C(O)C(C)O1 (some centres not stated)	0.649 µM (active)	0.361 µM (active)	14.7 µM (inactive)	
CCCCN(C)/N=N/c1[nH]cnc1C(N)=O	81.7 µM (inactive)	63.8 µM (inactive)	> 100 µM (inactive)	
O=C1C2=C(C3=NCCc4c[nH]c1c43)c1c(cc(Br)c(O)c1Br)CCN2	6.97 µM (inactive)	3.37 µM (inactive)	10.2 µM (inactive)	
CCOC(=O)CN(CC)C(=O)NC12CC3CC(CC(C3)C1)C2	188 µM (inactive)	175 µM (inactive)	120 µM (inactive)	
CC1=NCCc2cc3[nH]c4ccccc4c3cc21	14.6 µM (inactive)	6.73 µM (inactive)	9.04 µM (inactive)	
C=C1C(=O)[C@@]23CC[C@H]4[C@@](C)(CCC[C@@]4(C)C(=O)OC)[C@@H]2CC[C@]1(O)C3	1.45 µM (inactive)	0.153 µM (active)	0.0483 µM (active)	
C/C=C1\C[C@@H]2C(OC)Nc3cc(O)c(OC)cc3C(=O)N2C1 (some centres not stated)	0.01 µM (active)	0.01 µM (active)	0.01 µM (active)	
O=[N+]([O-])c1c(O)oc2ccccc2/c1=N\c1ccccc1O				IC50 (cells): 7.4 µM (active)
O=S1(=O)N=C(N/N=C/C=C/c2ccccc2)c2ccccc21				IC50 (cells): 30.6 µM (active)
O=C(NNC(=O)c1ccc(-c2ccccc2)cc1)c1ccccc1				IC50 [4]: 11.2 µM (active)
Nc1ccc2cn[nH]c2c1				EC50 (Protein RecA): 9.02 µM (active); AC50 [1]: 4.45 µM (active)
COc1cc([C@@H]2c3cc4c(c(O)c3C[C@H]3COC(=O)[C@@H]32)OCO4)cc(OC)c1O	0.0208 µM (active)	0.0261 µM (active)	0.02 µM (active)	
